# Data published in patent publication US20230085307A1, “PYRIDAZINONE COMPOUND AND HERBICIDE” (NISSAN CHEMICAL CORPORATION, priority 2019, published 2023).
# Assays:
# [1] = tested on: late watergrass; assay: Test Example 1: herbicidal activity, application before weed generation under submerged conditions (Table 16, symbol A); format: in vivo, late watergrass (Echinochloa oryzicola); conditions: 320 g/ha applied herbicide
# Procedure, shortened: (§1)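 Submerged Wagner pots (alluvial soil, 4 cm water) sown with weed seeds and planted with 2.5-leaf rice seedlings; emulsifiable concentrate diluted in water applied to water surface on sowing day. Held in greenhouse at 25-30 °C; injury scored 0-5 by herbicidal rate after three weeks.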
# [2] = tested on: Japanese bulrush; assay: Test Example 1: herbicidal activity, application before weed generation under submerged conditions (Table 16, symbol B); format: in vivo, Japanese bulrush (Schoenoplectus juncoides); conditions: 320 g/ha applied herbicide
# Procedure, shortened: as §1
# [3] = tested on: oval-leafed pondweed; assay: Test Example 1: herbicidal activity, application before weed generation under submerged conditions (Table 16, symbol C); format: in vivo, oval-leafed pondweed (Monochoria vaginalis); conditions: 320 g/ha applied herbicide
# Procedure, shortened: as §1
# [4] = tested on: barnyard grass; assay: Test Example 3: herbicidal effect by foliage application, Wagner pot (Table 18, symbol H); format: in vivo, barnyard grass (Echinochloa crus-galli); conditions: amount of applied herbicide 320 g/ha
# Procedure, shortened: (§2)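 Plants were sown in alluvial soil held under 0.1–0.5 cm standing water and grown 14 days in a greenhouse at 25–30 °C. An emulsifiable formulation, water-diluted to the set dose, was then sprayed onto the foliage, and effects were scored three weeks later using previously defined criteria.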
# [5] = tested on: Chinese sprangletop; assay: Test Example 3: herbicidal effect by foliage application, Wagner pot (Table 18, symbol D); format: in vivo, chinese sprangletop (Leptochloa chinensis); conditions: amount of applied herbicide 320 g/ha
# Procedure, shortened: as §2
# [6] = tested on: rice flat sedge; assay: Test Example 3: herbicidal effect by foliage application, Wagner pot (Table 18, symbol E); format: in vivo, rice flat sedge (Cyperus iria); conditions: amount of applied herbicide 320 g/ha
# Procedure, shortened: as §2
# [7] = tested on: southern crabgrass; assay: Test Example 4: herbicidal effect by soil treatment (Table 19, symbol F); format: in vivo, southern crabgrass (Digitaria ciliaris); conditions: amount of applied herbicide 320 g/ha
# Procedure, shortened: (§3)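 Herbicidal effect was rated 3 weeks after treatment, using the scoring criteria of an earlier test. The compound, formulated as an emulsion and diluted in water to a set herbicide amount, had been sprayed uniformly on soil over freshly sown seeds. Growth took place in a greenhouse at 25° C. to 30° C.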
# [8] = tested on: green foxtail; assay: Test Example 4: herbicidal effect by soil treatment (Table 19, symbol G); format: in vivo, green foxtail (Setaria viridis); conditions: amount of applied herbicide 320 g/ha
# Procedure, shortened: as §3
# [9] = tested on: barnyard grass; assay: Test Example 4: herbicidal effect by soil treatment (Table 19, symbol H); format: in vivo, barnyard grass (Echinochloa crus-galli); conditions: amount of applied herbicide 320 g/ha
# Procedure, shortened: as §3
# [10] = tested on: wild oat; assay: Test Example 4: herbicidal effect by soil treatment (Table 19, symbol I); format: in vivo, wild oat (Avena fatua); conditions: amount of applied herbicide 320 g/ha
# Procedure, shortened: as §3
# [11] = tested on: blackgrass; assay: Test Example 4: herbicidal effect by soil treatment (Table 19, symbol J); format: in vivo, blackgrass (Alopecurus myosuroides); conditions: amount of applied herbicide 320 g/ha
# Procedure, shortened: as §3
# [12] = tested on: Italian ryegrass; assay: Test Example 4: herbicidal effect by soil treatment (Table 19, symbol K); format: in vivo, Italian ryegrass (Lolium multiflorum); conditions: amount of applied herbicide 320 g/ha
# Procedure, shortened: as §3
# [13] = tested on: windgrass; assay: Test Example 4: herbicidal effect by soil treatment (Table 19, symbol L); format: in vivo, windgrass (Apera spica-venti); conditions: amount of applied herbicide 320 g/ha
# Procedure, shortened: as §3
# [14] = tested on: velvetleaf; assay: Test Example 4: herbicidal effect by soil treatment (Table 19, symbol M); format: in vivo, velvetleaf (Abutilon theophrasti); conditions: amount of applied herbicide 320 g/ha
# Procedure, shortened: as §3
# [15] = tested on: redroot pigweed; assay: Test Example 4: herbicidal effect by soil treatment (Table 19, symbol N); format: in vivo, redroot pigweed (Amaranthus retroflexus); conditions: amount of applied herbicide 320 g/ha
# Procedure, shortened: as §3
# [16] = tested on: lambsquarters; assay: Test Example 4: herbicidal effect by soil treatment (Table 19, symbol O); format: in vivo, lambsquarters (Chenopodium album); conditions: amount of applied herbicide 320 g/ha
# Procedure, shortened: as §3
# [17] = tested on: chickweed; assay: Test Example 4: herbicidal effect by soil treatment (Table 19, symbol P); format: in vivo, common chickweed (Stellaria media); conditions: amount of applied herbicide 320 g/ha
# Procedure, shortened: as §3
# [18] = tested on: false cleavers; assay: Test Example 4: herbicidal effect by soil treatment (Table 19, symbol Q); format: in vivo, false cleavers (Galium spurium); conditions: amount of applied herbicide 320 g/ha
# Procedure, shortened: as §3
# [19] = tested on: persian speedwell; assay: Test Example 4: herbicidal effect by soil treatment (Table 19, symbol R); format: in vivo, Persian speedwell (Veronica persica); conditions: amount of applied herbicide 320 g/ha
# Procedure, shortened: as §3
# [20] = tested on: southern crabgrass; assay: Test Example 5: herbicidal effect by foliage application, plastic box (Table 20, symbol F); format: in vivo, southern crabgrass (Digitaria ciliaris); conditions: foliage application, 320 g/ha, evaluated three weeks after application
# Procedure, shortened: (§4)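 Foliar spray test: emulsion formulation diluted in water to a set application rate, sprayed onto 14-day-old plants raised in diluvial soil at 25° C to 30° C under glass. Both herbicidal effect and crop effect rated visually three weeks later.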
# [21] = tested on: green foxtail; assay: Test Example 5: herbicidal effect by foliage application, plastic box (Table 20, symbol G); format: in vivo, green foxtail (Setaria viridis); conditions: foliage application, 320 g/ha, evaluated three weeks after application
# Procedure, shortened: as §4
# [22] = tested on: barnyard grass; assay: Test Example 5: herbicidal effect by foliage application, plastic box (Table 20, symbol H); format: in vivo, barnyard grass (Echinochloa crus-galli); conditions: foliage application, 320 g/ha, evaluated three weeks after application
# Procedure, shortened: as §4
# [23] = tested on: wild oat; assay: Test Example 5: herbicidal effect by foliage application, plastic box (Table 20, symbol I); format: in vivo, wild oat (Avena fatua); conditions: foliage application, 320 g/ha, evaluated three weeks after application
# Procedure, shortened: as §4
# [24] = tested on: blackgrass; assay: Test Example 5: herbicidal effect by foliage application, plastic box (Table 20, symbol J); format: in vivo, blackgrass (Alopecurus myosuroides); conditions: foliage application, 320 g/ha, evaluated three weeks after application
# Procedure, shortened: as §4
# [25] = tested on: Italian ryegrass; assay: Test Example 5: herbicidal effect by foliage application, plastic box (Table 20, symbol K); format: in vivo, Italian ryegrass (Lolium multiflorum); conditions: foliage application, 320 g/ha, evaluated three weeks after application
# Procedure, shortened: as §4
# [26] = tested on: windgrass; assay: Test Example 5: herbicidal effect by foliage application, plastic box (Table 20, symbol L); format: in vivo, windgrass (Apera spica-venti); conditions: foliage application, 320 g/ha, evaluated three weeks after application
# Procedure, shortened: as §4
# [27] = tested on: velvetleaf; assay: Test Example 5: herbicidal effect by foliage application, plastic box (Table 20, symbol M); format: in vivo, velvetleaf (Abutilon theophrasti); conditions: foliage application, 320 g/ha, evaluated three weeks after application
# Procedure, shortened: as §4
# [28] = tested on: redroot pigweed; assay: Test Example 5: herbicidal effect by foliage application, plastic box (Table 20, symbol N); format: in vivo, redroot pigweed (Amaranthus retroflexus); conditions: foliage application, 320 g/ha, evaluated three weeks after application
# Procedure, shortened: as §4
# [29] = tested on: lambsquarters; assay: Test Example 5: herbicidal effect by foliage application, plastic box (Table 20, symbol O); format: in vivo, lambsquarters (Chenopodium album); conditions: foliage application, 320 g/ha, evaluated three weeks after application
# Procedure, shortened: as §4
# [30] = tested on: chickweed; assay: Test Example 5: herbicidal effect by foliage application, plastic box (Table 20, symbol P); format: in vivo, common chickweed (Stellaria media); conditions: foliage application, 320 g/ha, evaluated three weeks after application
# Procedure, shortened: as §4
# [31] = tested on: persian speedwell; assay: Test Example 5: herbicidal effect by foliage application, plastic box (Table 20, symbol R); format: in vivo, Persian speedwell (Veronica persica); conditions: foliage application, 320 g/ha, evaluated three weeks after application
# Procedure, shortened: as §4
smiles,measurement,setting,value
COCC(=O)Nc1ccc2sc(-c3ccc(F)cc3OC)c(-c3c(O)c(C)nn(C)c3=O)c2c1 [2-179],Herbicidal effect on A: late watergrass (grade 0-5),[1],3 (Herbicidal rate of 40% or more and less than 70%)
same,Herbicidal effect on B: Japanese bulrush (grade 0-5),[2],0 (Herbicidal rate of 5% or less (almost no effect))
same,Herbicidal effect on C: oval-leafed pondweed (grade 0-5),[3],0 (Herbicidal rate of 5% or less (almost no effect))
same,herbicidal effect on H: barnyard grass,[4],2 (Herbicidal rate of 20% or more and less than 40%)
same,herbicidal effect on D: Chinese sprangletop,[5],2 (Herbicidal rate of 20% or more and less than 40%)
same,herbicidal effect on E: rice flat sedge,[6],4 (Herbicidal rate of 70% or more and less than 90%)
same,"F: southern crabgrass, herbicidal effect rating",[7],0 (Herbicidal rate of 5% or less (almost no effect))
same,"G: green foxtail, herbicidal effect rating",[8],0 (Herbicidal rate of 5% or less (almost no effect))
same,"H: barnyard grass, herbicidal effect rating",[9],0 (Herbicidal rate of 5% or less (almost no effect))
same,"I: wild oat, herbicidal effect rating",[10],0 (Herbicidal rate of 5% or less (almost no effect))
same,"J: blackgrass, herbicidal effect rating",[11],0 (Herbicidal rate of 5% or less (almost no effect))
same,"K: Italian ryegrass, herbicidal effect rating",[12],0 (Herbicidal rate of 5% or less (almost no effect))
same,"L: windgrass, herbicidal effect rating",[13],0 (Herbicidal rate of 5% or less (almost no effect))
same,"M: velvetleaf, herbicidal effect rating",[14],0 (Herbicidal rate of 5% or less (almost no effect))
same,"N: redroot pigweed, herbicidal effect rating",[15],2 (Herbicidal rate of 20% or more and less than 40%)
same,"O: lambsquarters, herbicidal effect rating",[16],3 (Herbicidal rate of 40% or more and less than 70%)
same,"P: chickweed, herbicidal effect rating",[17],3 (Herbicidal rate of 40% or more and less than 70%)
same,"Q: false cleavers, herbicidal effect rating",[18],0 (Herbicidal rate of 5% or less (almost no effect))
same,"R: persian speedwell, herbicidal effect rating",[19],3 (Herbicidal rate of 40% or more and less than 70%)
same,herbicidal effect on F: southern crabgrass (criteria 0-5),[20],0 (Herbicidal rate of 5% or less (almost no effect))
same,herbicidal effect on G: green foxtail (criteria 0-5),[21],0 (Herbicidal rate of 5% or less (almost no effect))
same,herbicidal effect on H: barnyard grass (criteria 0-5),[22],0 (Herbicidal rate of 5% or less (almost no effect))
same,herbicidal effect on I: wild oat (criteria 0-5),[23],0 (Herbicidal rate of 5% or less (almost no effect))
same,herbicidal effect on J: blackgrass (criteria 0-5),[24],0 (Herbicidal rate of 5% or less (almost no effect))
same,herbicidal effect on K: Italian ryegrass (criteria 0-5),[25],0 (Herbicidal rate of 5% or less (almost no effect))
same,herbicidal effect on L: windgrass (criteria 0-5),[26],0 (Herbicidal rate of 5% or less (almost no effect))
same,herbicidal effect on M: velvetleaf (criteria 0-5),[27],1 (Herbicidal rate of 5% or more and less than 20%)
same,herbicidal effect on N: redroot pigweed (criteria 0-5),[28],3 (Herbicidal rate of 40% or more and less than 70%)
same,herbicidal effect on O: lambsquarters (criteria 0-5),[29],2 (Herbicidal rate of 20% or more and less than 40%)
same,herbicidal effect on P: chickweed (criteria 0-5),[30],5 (Herbicidal rate of 90% or more (almost completely withered))
same,herbicidal effect on R: persian speedwell (criteria 0-5),[31],3 (Herbicidal rate of 40% or more and less than 70%)
